The record followed here is ChEMBL document CHEMBL1201862, “PubChem BioAssay data set” (2004).

Among the test systems are NCI-H522; COLO 205; HCT-116; DU-145; SF-295; SW-620; HCC 2998; NCI-H226; MOLT-4; NCI/ADR-RES; SNB-75; T47D; SF-268; SNB-19; UACC-62; SR; UO-31; SK-MEL-28; MDA-N; RPMI-8226.
Common to all, as to assay: DTP human tumour cell line panel, 48 h

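Method: 48-hour compound exposure of cells in 96-well plates, five concentrations, linear interpolation of endpoints. GI50 marks 50% less growth.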 Activity calls are given as the source filed them. Cut-off read from the data, not from the text of the source: active = GI50 up to about 1.1 µM and inactive = higher. Where only a bound is given, the exact number is not on record here.

By GI50 is commonly meant the concentration at which growth is held to half of that of the control. Turning to `COc1cc(C2c3cc4c(cc3OC(Nc3ccc(C(=O)O)cc3)C2C)OCO4)cc(OC)c1OC` (stereo not given), the GI50 in the test on NCI-H522 was 0.376 µM (active); with COLO 205 it was 0.202 µM (active); in the test on HCT-116, 0.31 µM (active); in the test on DU-145 it was 0.378 µM (active); in the test on SF-295, 0.214 µM (active); in the test on SW-620 it was 0.35 µM (active). Further, the GI50 was 0.295 µM (active) in the test on HCC 2998; 2.31 µM (inactive) in the test with NCI-H226; 0.434 µM (active) with MOLT-4; 0.29 µM (active) with NCI/ADR-RES; 0.295 µM (active) in the test with SNB-75; 0.458 µM (active) with T47D. The 50% growth inhibitory concentration (GI50) is 0.504 µM (active) in the test on SF-268; 0.472 µM (active) in the test with SNB-19; 0.403 µM (active) in the test on UACC-62; 0.204 µM (active) in the test with SR; 0.426 µM (active) in the test on UO-31; 11.1 µM (inactive) in the test on SK-MEL-28. The GI50 is 0.0557 µM (active) in the test with MDA-N and 0.337 µM (active) in the test on RPMI-8226.

Consider `Cc1cccc2c(N)c3cccc(C(=O)NCC[N+](C)(C)Cc4ccc([N+](=O)[O-])n4C)c3nc12`, for which the GI50 in the test with NCI-H522 is 8.65 µM (inactive); with COLO 205, 9.82 µM (inactive); with HCT-116, 14.6 µM (inactive); with DU-145, 18.8 µM (inactive); with SF-295, 17.6 µM (inactive); in the test with SW-620 it was 18.6 µM (inactive). Besides, the GI50 with HCC 2998 was 10.6 µM (inactive); with NCI-H226, 6.5 µM (inactive); in the test with MOLT-4, 1.66 µM (inactive); in the test with NCI/ADR-RES, 55.3 µM (inactive); with SNB-75 it was 6.32 µM (inactive); in the test with T47D, 4.71 µM (inactive). Further, the GI50 is 8.47 µM (inactive) in the test with SF-268; 15.6 µM (inactive) in the test on SNB-19; 44.3 µM (inactive) in the test on UACC-62; 3.44 µM (inactive) with SR; 16.2 µM (inactive) with UO-31; 43.8 µM (inactive) with SK-MEL-28. The GI50 in the test on MDA-N is 41.3 µM (inactive); with RPMI-8226, 12.1 µM (inactive).

For `CC(C)c1ccc(C2NC(S)=NC3=C2c2ccccc2C3=O)cc1` (stereo not given), the GI50 was 17.3 µM (inactive) in the test with NCI-H522; 26.4 µM (inactive) in the test on COLO 205; 23.6 µM (inactive) in the test with HCT-116; 16.7 µM (inactive) in the test with DU-145; 20.5 µM (inactive) in the test on SF-295; 23.4 µM (inactive) in the test on SW-620. Besides, the GI50 is > 36.6 µM (inactive) in the test on HCC 2998; 34.4 µM (inactive) with NCI-H226; 24.4 µM (inactive) with MOLT-4; 15.1 µM (inactive) in the test on NCI/ADR-RES; 15.7 µM (inactive) in the test on SNB-75; 18.2 µM (inactive) in the test on T47D. The GI50 in the test with SF-268 was 19.9 µM (inactive); with SNB-19 it was 23.8 µM (inactive); in the test with UACC-62, 12 µM (inactive); with SR it was 8.95 µM (inactive); with UO-31, 21.5 µM (inactive); in the test with SK-MEL-28, 21.1 µM (inactive). Moreover, the results for the GI50 in the test with MDA-N and with RPMI-8226 were 5.31 µM (inactive) and 23.2 µM (inactive), respectively.

On to `C1CCNCC1.S=C(S)N1CCCCC1`, for which the GI50 in the test on NCI-H522 is 0.276 µM (active); in the test with HCT-116, 14.1 µM (inactive); in the test on DU-145 it was 140 µM (inactive); in the test with SF-295, 99.8 µM (inactive); with SW-620 it was 0.573 µM (active); in the test on HCC 2998 it was 100 µM (inactive). The GI50 was 192 µM (inactive) with NCI-H226; 19.3 µM (inactive) in the test with NCI/ADR-RES; 61.2 µM (inactive) with SNB-75; 91 µM (inactive) in the test on T47D; 75.7 µM (inactive) with SF-268; 149 µM (inactive) in the test with SNB-19. Also, the 50% growth inhibitory concentration (GI50) in the test with UACC-62 was 0.601 µM (active); in the test with SR, 0.46 µM (active); in the test on UO-31, 58.7 µM (inactive); in the test on SK-MEL-28, 48.6 µM (inactive); with MDA-N, 13.1 µM (inactive); with RPMI-8226, 3.75 µM (inactive).

For the molecule `COc1ccc(C(Nc2ccccn2)c2cc(C(C)(C)C)cc(C(C)(C)C)c2O)cc1` (stereo not given), the GI50 in the test with NCI-H522 is 4.05 µM (inactive); in the test on COLO 205 it was 19 µM (inactive); with HCT-116, 12.6 µM (inactive); in the test on DU-145, 7.76 µM (inactive); with SF-295, 12.4 µM (inactive); in the test with SW-620, 19.2 µM (inactive). Moreover, the GI50 was 12.3 µM (inactive) with HCC 2998; 21.3 µM (inactive) with NCI-H226; 16 µM (inactive) in the test on NCI/ADR-RES; 13.8 µM (inactive) in the test on SNB-75; 6.67 µM (inactive) in the test with T47D; 5.65 µM (inactive) in the test with SF-268. Further, the GI50 was 61 µM (inactive) in the test with SNB-19; 17 µM (inactive) with UACC-62; 10.1 µM (inactive) in the test with SR; 29.9 µM (inactive) in the test on UO-31; 50.4 µM (inactive) with SK-MEL-28; 20.7 µM (inactive) with MDA-N. Moreover, in the test with RPMI-8226, the GI50 was 23.1 µM (inactive).

On to `C/C=C/C=C/C1=NN(c2cccc(S(=O)(=O)O)c2)C2(C1)SCC(=O)N2c1nc2ccccc2s1` (stereo not given), for which the GI50 with NCI-H522 is 33.1 µM (inactive); in the test on COLO 205 it was > 100 µM (inactive); in the test with HCT-116 it was 67 µM (inactive); in the test on DU-145 it was 34.5 µM (inactive); with SW-620, 72.1 µM (inactive); with HCC 2998, > 100 µM (inactive). The GI50 in the test with NCI-H226 was 30.8 µM (inactive); with MOLT-4, 29.4 µM (inactive); in the test with NCI/ADR-RES, 51.2 µM (inactive); in the test with SNB-75 it was 68.5 µM (inactive); in the test with T47D, 24.6 µM (inactive); with SF-268, 89.7 µM (inactive). The GI50 is 47 µM (inactive) in the test with SNB-19; 40.7 µM (inactive) in the test on UACC-62; 25.1 µM (inactive) with SR; 47.8 µM (inactive) in the test with UO-31; > 100 µM (inactive) in the test with SK-MEL-28; 61 µM (inactive) in the test with MDA-N. Further, the GI50 in the test on RPMI-8226 is 29.9 µM (inactive).

As to `NS(=O)(=O)c1ccc(NC(=S)NC(=O)Nc2ccc(Cl)c(Cl)c2)cc1`, the GI50 in the test on NCI-H522 was 16 µM (inactive); with COLO 205, 14 µM (inactive); in the test on HCT-116, 13.4 µM (inactive); with DU-145, 15.5 µM (inactive); in the test with SF-295 it was 13.4 µM (inactive); in the test with SW-620, 16.5 µM (inactive). Besides, the GI50 with HCC 2998 is 14.6 µM (inactive); in the test with NCI-H226, 20.4 µM (inactive); in the test on MOLT-4, 7.6 µM (inactive); with NCI/ADR-RES it was 16 µM (inactive); in the test on SNB-75, 13.7 µM (inactive); in the test on T47D, 10.7 µM (inactive). In addition, the GI50 in the test on SF-268 is 12.8 µM (inactive); with SNB-19, 11.9 µM (inactive); with UACC-62, 13.5 µM (inactive); in the test on SR, < 0.01 µM (active); in the test on UO-31 it was 4.56 µM (inactive); in the test with SK-MEL-28 it was 17.8 µM (inactive). For the same molecule, the GI50 in the test with MDA-N is 14.6 µM (inactive); in the test with RPMI-8226, 19.6 µM (inactive).

`CNC(=O)C(C)NC(=O)C(Cc1ccccc1)NC(=O)OC(C)(C)C` (stereo not given): the GI50 in the test with NCI-H522 was 51.2 µM (inactive); in the test on COLO 205, > 100 µM (inactive); in the test with HCT-116 it was > 100 µM (inactive); in the test with DU-145, > 100 µM (inactive); in the test with SF-295, > 100 µM (inactive); with SW-620, > 100 µM (inactive). The GI50 in the test with HCC 2998, in the test with NCI-H226, in the test on MOLT-4, with NCI/ADR-RES, with SNB-75 and with T47D was > 100 µM (inactive) in each case. Besides, the GI50 in the test on SF-268, in the test on SNB-19, in the test on UACC-62, in the test on SR, with UO-31 and in the test with SK-MEL-28 was > 100 µM (inactive) throughout. For the same molecule, the GI50 in the test on MDA-N and in the test on RPMI-8226 was > 100 µM (inactive) each time.

As for `CC1=[N+](C)CCN1C`, the GI50 in the test with NCI-H522, with COLO 205, with HCT-116, in the test on DU-145, in the test on SF-295 and with SW-620 was > 100 µM (inactive) in each case. The GI50 with HCC 2998, in the test on NCI-H226, in the test on MOLT-4, in the test on NCI/ADR-RES, in the test on SNB-75 and in the test on T47D was > 100 µM (inactive) in each case. The GI50 in the test with SF-268, with SNB-19, in the test on SR, with UO-31, in the test with SK-MEL-28 and in the test on MDA-N was > 100 µM (inactive) each time. Besides, the GI50 in the test with RPMI-8226 is > 100 µM (inactive).

Turning to `COc1ccc2c(c1[N+](=O)[O-])CC[C@@H]1[C@@H]2CC[C@]2(C)C(=O)CC[C@@H]12`, the GI50 in the test on NCI-H522 is > 25 µM (inactive); in the test with COLO 205 it was 21.8 µM (inactive); in the test with HCT-116, 20.3 µM (inactive); in the test with DU-145, > 25 µM (inactive); in the test with SF-295, > 25 µM (inactive); with SW-620, > 25 µM (inactive). The GI50 with HCC 2998 was > 1000 µM (inactive); in the test with NCI-H226, 23.1 µM (inactive); with MOLT-4, > 25 µM (inactive); in the test with NCI/ADR-RES, > 25 µM (inactive); in the test with SNB-75 it was > 25 µM (inactive); in the test on T47D it was > 25 µM (inactive). Also, the GI50 in the test with SF-268 is > 25 µM (inactive); in the test with SNB-19, 24.2 µM (inactive); with UACC-62 it was 18.3 µM (inactive); in the test with SR, > 1000 µM (inactive); with UO-31, > 25 µM (inactive); with SK-MEL-28, 20.7 µM (inactive). For the same molecule, the GI50 in the test with MDA-N is > 925 µM (inactive); with RPMI-8226, > 25 µM (inactive).
